Results published in patent US8663669B2, “Pesticide treatment of soils or substrates with sulphur compounds” (Arkema France, priority 2002, dated 2014).

Columns and labels:
[1] = Diffusion of DMDS into the soil (column of earth, gas chromatography); type: physicochemical
Procedure: The rate of diffusion of DMDS was studied by filling a sealed thermal glass chamber of 3.3 litres and 40 cm in height with 2.5 litres of earth (that is 33 cm) obtained from the Garonne valley (sandy-muddy soil containing 1.6% of organic matter); the DMDS was deposited at the surface of the earth in 2 doses: 300 and 800 kg/ha, that is, considering a disinfection over 30 cm, doses of 100 and 266.6 g/m^3 of soil. There are then measured by gas chromatography, as a function of time (in hours), the concentrations of DMDS in gaseous form (in g/m^3) in the top free volume of the chamber (point A) and at 11 cm (point B), 22 cm (point C) and 33 cm (point D) below the level of the earth by means of 3 openings equipped with sealed septums on the side of the chamber; the variation in the concentration as a function of time for the 4 measurement points is thus obtained, as shown in Table 2 in the case of the 800 kg/ha dose.
The product CT of the concentrations C by the time of measurement T is another essential data which indicates the cumulative doses of DMDS to which are subjected the pathogenic organisms which may be present at the different measurement points. The CT values in gh/m^3 indicated in Table 3 are thus found for the two concentrations tested.

[2] = system: young cucumber plants (9 cm, 2 leaves, ARIS hybrid); assay: Phytotoxicity on young cucumber plants; type: in vivo
Procedure: For both types of crop, 4 treatments were performed on 20 plants: • untreated control • 360 kg/ha of DMDS • 540 kg/ha of DMDS • 720 kg/ha of DMDS
Five days after the treatment, the young plants are transplanted into pots 20 cm in diameter and 35 cm in height.
The observations relating to the number of leaves per plant and the visual state of the plants are carried out 15 and 41 days after the transplantation: […]

Compound: CSSC [DMDS, dimethyl disulphide]
- CT (product of concentrations C by time T) ([1]; 300 kg/ha, A (0 cm)): 3187 gh/m^3
- CT (product of concentrations C by time T) ([1]; 300 kg/ha, B (−11 cm)): 2737 gh/m^3
- CT (product of concentrations C by time T) ([1]; 300 kg/ha, C (−22 cm)): 2753 gh/m^3
- CT (product of concentrations C by time T) ([1]; 300 kg/ha, D (−33 cm)): 2210 gh/m^3
- DMDS concentration in gaseous form ([1]; 800 kg/ha dose, 0 h, A (0 cm)): 0 g/m^3
- DMDS concentration in gaseous form ([1]; 800 kg/ha dose, 0 h, B (−11 cm)): 0 g/m^3
- DMDS concentration in gaseous form ([1]; 800 kg/ha dose, 0 h, C (−22 cm)): 0 g/m^3
- DMDS concentration in gaseous form ([1]; 800 kg/ha dose, 0 h, D (−33 cm)): 0 g/m^3
- Time for the DMDS concentration to be homogeneous in the entire thickness of the column of earth ([1]; 800 kg/ha dose, 33 cm of earth): approximately 24 hours
- DMDS concentration in gaseous form ([1]; 800 kg/ha dose, 1 h, A (0 cm)): 144.9 g/m^3
- DMDS concentration in gaseous form ([1]; 800 kg/ha dose, 1 h, B (−11 cm)): 76.6 g/m^3
- DMDS concentration in gaseous form ([1]; 800 kg/ha dose, 1 h, C (−22 cm)): 3 g/m^3
- DMDS concentration in gaseous form ([1]; 800 kg/ha dose, 1 h, D (−33 cm)): 0 g/m^3
- DMDS concentration in gaseous form ([1]; 800 kg/ha dose, 3 h, A (0 cm)): 152.7 g/m^3
- DMDS concentration in gaseous form ([1]; 800 kg/ha dose, 3 h, B (−11 cm)): 73.9 g/m^3
- DMDS concentration in gaseous form ([1]; 800 kg/ha dose, 3 h, C (−22 cm)): 5.1 g/m^3
- DMDS concentration in gaseous form ([1]; 800 kg/ha dose, 3 h, D (−33 cm)): 0.3 g/m^3
- DMDS concentration in gaseous form ([1]; 800 kg/ha dose, 5 h, A (0 cm)): 96.3 g/m^3
- DMDS concentration in gaseous form ([1]; 800 kg/ha dose, 5 h, B (−11 cm)): 63.8 g/m^3
- DMDS concentration in gaseous form ([1]; 800 kg/ha dose, 5 h, C (−22 cm)): 48.4 g/m^3
- DMDS concentration in gaseous form ([1]; 800 kg/ha dose, 5 h, D (−33 cm)): 21.5 g/m^3
- DMDS concentration in gaseous form ([1]; 800 kg/ha dose, 5.5 h, A (0 cm)): 123.7 g/m^3
- DMDS concentration in gaseous form ([1]; 800 kg/ha dose, 5.5 h, B (−11 cm)): 91.4 g/m^3
- DMDS concentration in gaseous form ([1]; 800 kg/ha dose, 5.5 h, C (−22 cm)): 58.3 g/m^3
- DMDS concentration in gaseous form ([1]; 800 kg/ha dose, 5.5 h, D (−33 cm)): 29.4 g/m^3
- DMDS concentration in gaseous form ([1]; 800 kg/ha dose, 24 h, A (0 cm)): 32.7 g/m^3
- DMDS concentration in gaseous form ([1]; 800 kg/ha dose, 24 h, B (−11 cm)): 30.2 g/m^3
- DMDS concentration in gaseous form ([1]; 800 kg/ha dose, 24 h, C (−22 cm)): 40.1 g/m^3
- DMDS concentration in gaseous form ([1]; 800 kg/ha dose, 24 h, D (−33 cm)): 34.4 g/m^3
- DMDS concentration in gaseous form ([1]; 800 kg/ha dose, 96 h, A (0 cm)): 11.8 g/m^3
- DMDS concentration in gaseous form ([1]; 800 kg/ha dose, 96 h, B (−11 cm)): 11.5 g/m^3
- DMDS concentration in gaseous form ([1]; 800 kg/ha dose, 96 h, C (−22 cm)): 12.9 g/m^3
- DMDS concentration in gaseous form ([1]; 800 kg/ha dose, 96 h, D (−33 cm)): 14.6 g/m^3
- CT (product of concentrations C by time T) ([1]; 800 kg/ha, A (0 cm)): 4145 gh/m^3
- CT (product of concentrations C by time T) ([1]; 800 kg/ha, B (−11 cm)): 3327 gh/m^3
- CT (product of concentrations C by time T) ([1]; 800 kg/ha, C (−22 cm)): 3276 gh/m^3
- CT (product of concentrations C by time T) ([1]; 800 kg/ha, D (−33 cm)): 2809 gh/m^3
- CT values, order of magnitude ([1]; dose of 300 kg/ha): ~2 500 gh/m^3
- CT values, order of magnitude ([1]; dose of 800 kg/ha): ~3 000 gh/m^3
- Visual symptom of phytotoxicity ([2]; 360, 540, 720 kg/ha, 15 and 41 days after transplantation): no visual symptom of phytotoxicity
- Average number of leaves per plant ([2]; 360 kg/ha DMDS (formulation A), after 15 days): 5.3
- Average number of leaves per plant ([2]; 360 kg/ha DMDS (formulation A), after 41 days): 9.8
- Average number of leaves per plant ([2]; 540 kg/ha DMDS (formulation A), after 15 days): 5.7
- Average number of leaves per plant ([2]; 540 kg/ha DMDS (formulation A), after 41 days): 9.7
- Average number of leaves per plant ([2]; 720 kg/ha DMDS (formulation A), after 15 days): 5.7
- Average number of leaves per plant ([2]; 720 kg/ha DMDS (formulation A), after 41 days): 9.9
- Difference in number of leaves between untreated control and treated plants ([2]; regardless of the concentration tested (360-720 kg/ha)): no significant difference
